The subject of one series is THLE-2 cells. Description: cells. As to conditions: Homo sapiens. The class given is cell-based. The method, then:
The effects of ANF and RZF and their dehydroxylated derivatives 1 and 2 on the viability of human cells were further evaluated in an assay with THLE-2 cells, which are a transformed human liver epithelial cell line. These cells express phenotypic characteristics of normal adult liver epithelial cells.
THLE-2 cells (ATCC, cat. no. CRL2706) were cultured in 384-well plates coated with BEBM (Lonza, cat. no CC3170) containing 100 μg/mL BSA, 1:100 fibronectin (Sigma, cat. no. F0895), and a 1:100 PureCol EZ Gel Solution (Sigma, cat. no. 5074) for 50–60 min at 37 °C. THLE-2 cells were plated at a density of 2.5 × 10^3 cells/well in the coated plates in a total volume of 20 μL. Culture media were BEGM supplemented with 5 ng/mL hEGF (Sigma, cat. no. E5036), 70 ng/mL phosphoethanolamine (Sigma, cat. no. P0503), and 10% fetal bovine serum. Plates were incubated overnight at 37 °C, 95% humidity, and 5% CO2. The culture medium was replaced with 50 μL of a fresh medium, and compounds were applied to the cells in triplicate. Plates were cultured for another 72 h, and ATP was quantified using a CellTiter-Glo kit (Promega #G7573) according to the manufacturer’s protocol. The luminescence signal was detected using a PHERAstar FS (BMG Labtech).

On the set-up of series [1]: method as in PMID 23335738. To be noted: patients with candidemia or invasive candidiasis, 200 mg loading dose day 1 then daily 100 mg; cited from earlier work.
The conditions of series [2]: healthy volunteers, single 400 mg dose, a few hours after administration; cited from earlier work.
Setting [3] is: THLE-2, 72 h of incubation, ranges for ANF and 1 and for RZF and 2 stated jointly, read-out: IC50 value (THLE-2 viability).
The mark [4] stands for this setting: THLE-2, 72 h, ATP luminescence, read-out: IC50 (cell viability).

SMILES strings stand for the structures. Read-outs that look alike come from different tables or passages of the source. *1 amine or outer side, *2 acyl side, *3 side chain or, on linkers, in order; H or OH if unused. Where a SMILES comes first, the peptide text is derived from it. Bridges are numbered along the chain shown (N, C = ends). [ ]: non-standard residue; d: D form. The star is where a group is joined. Orn(4R-OH,5R-OCH2CH2NMe3+) = C[N+](C)(C)CCO[C@@H](N[*:3])[C@H](O)C[C@H](N[*:1])C(=O)[*:2]; pTerphenylCO(4''-OnC5H11) = CCCCCOc1ccc(-c2ccc(-c3ccc(C(=O)*)cc3)cc2)cc1; Orn(4R-OH,5R-OH) = O=C([C@H](C[C@@H](O)[C@@H](O)N[*:3])N[*:1])[*:2]; hTyr(3S-OH,4S-OH) = N[C@H](C(=O)O)[C@H](O)[C@@H](O)c1ccc(O)cc1; Pro(3S-OH,4S-Me) = C[C@H]1CN[C@H](C(=O)O)[C@H]1O; hTyr(3R-OH) = N[C@H](C(=O)O)[C@H](O)Cc1ccc(O)cc1; Hyp = O=C(O)[C@@H]1C[C@@H](O)CN1

Broadly, the IC50 is the concentration that gives 50% inhibition. A word on the Cmax: it is the highest concentration seen after dosing.

Take `CCCCCOc1ccc(-c2ccc(-c3ccc(C(=O)N[C@H]4C[C@@H](O)[C@@H](O)NC(=O)[C@@H]5[C@@H](O)[C@@H](C)CN5C(=O)[C@H]([C@@H](C)O)NC(=O)[C@H]([C@H](O)[C@@H](O)c5ccc(O)cc5)NC(=O)[C@@H]5C[C@@H](O)CN5C(=O)[C@H]([C@@H](C)O)NC4=O)cc3)cc2)cc1` [ANF, anidulafungin] ({pTerphenylCO(4''-OnC5H11)}-[Orn(4R-OH,5R-OH)]T[Hyp][hTyr(3S-OH,4S-OH)]T[Pro(3S-OH,4S-Me)]; lactam 1-C): the results for the IC50 in the series on THLE-2 cells (setting [3]) and with THLE-2 cells (setting [4]) were 36 to 41 µM and 40.6 ± 2.9 µM, respectively. Further, the Cmax in series [1] is around 7 µM.
Turning to `CCCCCOc1ccc(-c2ccc(-c3ccc(C(=O)N[C@H]4C[C@@H](O)[C@@H](O)NC(=O)[C@@H]5[C@@H](O)[C@@H](C)CN5C(=O)[C@H]([C@@H](C)O)NC(=O)[C@H]([C@H](O)Cc5ccc(O)cc5)NC(=O)[C@@H]5C[C@@H](O)CN5C(=O)[C@H]([C@@H](C)O)NC4=O)cc3)cc2)cc1` [Compound 1, dehydroxy-ANF] ({pTerphenylCO(4''-OnC5H11)}-[Orn(4R-OH,5R-OH)]T[Hyp][hTyr(3R-OH)]T[Pro(3S-OH,4S-Me)]; lactam 1-C), the IC50 in the series with THLE-2 cells (setting [3]) is 36 to 41 µM; in the series on THLE-2 cells (setting [4]) it was 36.4 ± 2.75 µM.
Turning to `CCCCCOc1ccc(-c2ccc(-c3ccc(C(=O)N[C@H]4C[C@@H](O)[C@@H](OCC[N+](C)(C)C)NC(=O)[C@@H]5[C@@H](O)[C@@H](C)CN5C(=O)[C@H]([C@@H](C)O)NC(=O)[C@H]([C@H](O)Cc5ccc(O)cc5)NC(=O)[C@@H]5C[C@@H](O)CN5C(=O)[C@H]([C@@H](C)O)NC4=O)cc3)cc2)cc1` [Compound 2, dehydroxy-RZF] ({pTerphenylCO(4''-OnC5H11)}-[Orn(4R-OH,5R-OCH2CH2NMe3+)]T[Hyp][hTyr(3R-OH)]T[Pro(3S-OH,4S-Me)]; lactam 1-C), the results for the half-maximal inhibitory concentration (IC50) with THLE-2 cells (setting [3]) and in the series on THLE-2 cells (setting [4]) were 36 to 77 µM and 55.9 ± 3 µM, respectively.
Regarding `CCCCCOc1ccc(-c2ccc(-c3ccc(C(=O)N[C@H]4C[C@@H](O)[C@@H](OCC[N+](C)(C)C)NC(=O)[C@@H]5[C@@H](O)[C@@H](C)CN5C(=O)[C@H]([C@@H](C)O)NC(=O)[C@H]([C@H](O)[C@@H](O)c5ccc(O)cc5)NC(=O)[C@@H]5C[C@@H](O)CN5C(=O)[C@H]([C@@H](C)O)NC4=O)cc3)cc2)cc1` [RZF, rezafungin] ({pTerphenylCO(4''-OnC5H11)}-[Orn(4R-OH,5R-OCH2CH2NMe3+)]T[Hyp][hTyr(3S-OH,4S-OH)]T[Pro(3S-OH,4S-Me)]; lactam 1-C), the Cmax in series [2] was around 17 µM. The half-inhibitory concentration (IC50) is 36 to 77 µM in the series on THLE-2 cells (setting [3]) and 76.6 ± 4.8 µM with THLE-2 cells (setting [4]).

Values taken from paper PMC8991007, “Benzylic Dehydroxylation of Echinocandin Antifungal Drugs Restores Efficacy against Resistance Conferred by Mutated Glucan Synthase” (Journal of the American Chemical Society, 2022).
